Data on three molecules can be found in patent US10493126B2, “Combination therapy for ameliorating adverse side effects caused by chemotherapy” (YEASTERN BIOTECH CO., LTD, priority 2014, dated 2019).

The test system of series [1] is BALB/cByJNarl mice. The series is described as follows: Micro CT of tibia, trabecular bone micro-architecture, Docetaxel mice model. The following applies: for porosity of knee, distal femur and proximal tibia samples, in words: FIG. 3B/3C, versus the mice group injected with Docetaxel alone. The class given is in vivo. An excerpt: (§1) Male BALB/cByJNarl mice (6-8 weeks old) were purchased from National Laboratory Animal Center (NLAC) in Taiwan and randomly divided into four groups, with five mice in Groups Docetaxel+PBS, Docetaxel+FIP-fve and Docetaxel+FIP-gts each and four in Control group. The mice were housed under pathogen-free conditions with a 12-hour light/12-hour dark schedule, and fed an autoclaved diet with ad libitum access to standard rodent chow (Laboratory Rodent Diet 5001, LabDiet, St. Louis, Mo., USA). Three days before the administration of Docetaxel (namely, Day-3), the mice in the Docetaxel+PBS Group started to be fed phosphate-buffered saline (PBS) at 100 μL/animal/day, and the daily feeding of PBS continued throughout the experiment. The mice were injected intravenously in the tail vein with Taxotere® (Aventis Pharma Ltd., Dagenham, UK) at a dose of 30 mg/kg body weight on Days 1, 8 and 15. The Docetaxel+FIP-fve and Docetaxel+FIP-gts Groups were administered Taxotere® at the same dose on the same days as described above. Additionally, the two treatment groups daily received 100 μL PBS added with either 200 μg FIP-fve or 400 μg FIP-gts throughout the experiment starting from Day-3 until the end of the experiment (Day 18). The FIP-gts protein used in this and other Examples disclosed herein was produced according to the method disclosed in WO2005040375A1. The FIP-fve protein used herein was purified from F. velutipes by the method disclosed in Ko J. L., Eur. J. Biochem. 1995; 228:244-249. The mice of the Control Group were given with PBS alone at 100 μL/animal/day without being injected with anti-cancer agent. Blood was sampled from the orbital sinus of the mice on days 4, 11 and 18 for subsequent analysis. The animals were sacrificed by CO2 asphyxiation on day 18. The protocol of the experiment is illustrated in FIG. 1.
Tibiae were separated from right hind limbs of the mice and defleshed. Afterwards, individual tibiae were placed into 15 mL Falcons conical centrifuge tubes (Becton, Dickinson and Company, Franklin Lakes, N.J., USA) and covered with 70% ethanol. The tibia samples were sent to the Taiwan Mouse Clinic, funded by the National Research Program for Biopharmaceuticals (NRPB) of the National Science Council (NSC) in Taiwan, where the samples were scanned by applying three-dimensional micro-computed tomography (micro CT) in a high-resolution low-dose X-ray scanner (SkyScan 1076, Aartselaar, Belgium) and assessed for trabecular bone micro-architecture. For histological analysis, some tibia samples were demineralized in 10% EDTA for two weeks, dehydrated in graded ethanol solutions and embedded in paraffin wax using a Leica ASP300S tissue processor (Leica Microsystems Nussloch GmbH). Deparaffinized sections were stained with hematoxylin and eosin (H&E staining) and then observed under microscope.

Series [2] deals with BALB/cByJNarl mice. Put plainly: Structural integrity of jejunal villus, H&E histology, Docetaxel mice model. The class given is in vivo. The following applies: mice jejunum, FIG. 2A/2B. From the text: (§2) Male BALB/cByJNarl mice (6-8 weeks old) were purchased from National Laboratory Animal Center (NLAC) in Taiwan and randomly divided into four groups, with five mice in Groups Docetaxel+PBS, Docetaxel+FIP-fve and Docetaxel+FIP-gts each and four in Control group. The mice were housed under pathogen-free conditions with a 12-hour light/12-hour dark schedule, and fed an autoclaved diet with ad libitum access to standard rodent chow (Laboratory Rodent Diet 5001, LabDiet, St. Louis, Mo., USA). Three days before the administration of Docetaxel (namely, Day-3), the mice in the Docetaxel+PBS Group started to be fed phosphate-buffered saline (PBS) at 100 μL/animal/day, and the daily feeding of PBS continued throughout the experiment. The mice were injected intravenously in the tail vein with Taxotere® (Aventis Pharma Ltd., Dagenham, UK) at a dose of 30 mg/kg body weight on Days 1, 8 and 15. The Docetaxel+FIP-fve and Docetaxel+FIP-gts Groups were administered Taxotere® at the same dose on the same days as described above. […]
Intestinal samples from the jejunum of the sacrificed mice were fixed in 10% formalin and embedded in paraffin wax. […] The histological images of villi appeared in the intestinal samples are shown in FIG. 2A, and the lengths of villi measured by an NIS-Elements D 3.2 image analysis system (Nikon, Japan) were shown in FIG. 2B.

For series [3], the system named is BALB/cByJNarl mice. Put plainly: Bone marrow adipogenesis in tibia, H&E histology, Docetaxel mice model. It counts as in vivo. The following applies: FIG. 4A/4B, compared to the Control.
Text: as §2, with “15.” for “15. The Docetaxel+FIP-fve and Docetaxel+FIP-gts Groups were administered Taxotere® at the same dose on the same days as described above.”
Tibiae were separated from right hind limbs of the mice and defleshed. […] The tibia samples were sent to the Taiwan Mouse Clinic, funded by the National Research Program for Biopharmaceuticals (NRPB) of the National Science Council (NSC) in Taiwan, where the samples were scanned by applying three-dimensional micro-computed tomography (micro CT) in a high-resolution low-dose X-ray scanner (SkyScan 1076, Aartselaar, Belgium) and assessed for trabecular bone micro-architecture. […]

Series [4] concerns BALB/cByJNarl mice. Put plainly: Complete blood count in Docetaxel mice model. It counts as in vivo.
Text: as §1

A further series has as its system human lymphocytes. The following applies: 3H-thymidine, compared to PHA; cited from earlier work.
Series [5] has as its system human patients with stage III or IV lung cancer. The series is described as follows: Clinical study: FIP-gts tablets with Taxotere and cisplatin/carboplatin. The following applies: columns = course days; for Hb: in g/dL (unit assumed); for Cr.: in mg/dL (unit assumed). The arrangement: key to ECOG: 0: Asymptomatic (Fully active, able to carry on all pre-disease activities without restriction); 1: Symptomatic but completely ambulatory (Restricted in physically strenuous activity but ambulatory and able to carry out work of a light or sedentary nature. For example, light housework, office work); 2: Symptomatic, <50% in bed during the day (Ambulatory and capable of all self care but unable to carry out any work activities. Up and about more than 50% of waking hours); 3: Symptomatic, >50% in bed, but not bedbound (Capable of only limited self-care, confined to bed or chair 50% or more of waking hours); 4: Bedbound (Completely disabled. Cannot carry on any self-care. Totally confined to bed or chair); 5: Death. The class given is in vivo. Here is the method: The inventors further conducted a clinical study on diminished quality of life (QOL) and cancer-related fatigue (CRF) caused by chemotherapy. The QOL and CRF of selected human patients were evaluated by the Eastern Cooperative Oncology Group (ECOG) Performance Status Scale from 0 to 5 (Oken M. M., et al., Am. J. Clin. Oncol.; 1982, 5(6): 649-55), where each grade represents:
Five human patients with stage III or IV lung cancer were enrolled in this study. During the study, each patient was administered Taxotere® at either a low dose of 20-30 mg/m^2 or a high dose of 60-69 mg/m^2 in conjunction with cisplatin/carboplatin on the designated days as prescribed by the physician, and received daily two tablets of FIP-gts (3 mg/tablet). The patients were asked to come back to the hospital on the designated days for follow up at the clinic and collection of blood samples. The patients were assessed for quality of life and fatigue according to the ECOG performance status system described above. The medical records of the five patients, as well as the administration regimens for the patients, were illustrated in Tables III.A-III.E below.

The mark [6] stands for this setting: mice tibia, micro CT, Day 18, Docetaxel 30 mg/kg i.v., FIP-fve 200 μg or FIP-gts 400 μg daily.
Setting [7] is: Docetaxel 30 mg/kg i.v. Days 1, 8, 15, daily FIP-fve 200 μg or FIP-gts 400 μg in 100 μL PBS from Day -3, Day 18.
Where [8] appears, read: Patient Case 3, Taxotere + cisplatin + daily FIP-gts, chemotherapy course 1, April.
The mark [9] stands for this setting: Patient Case 3, Taxotere + cisplatin + daily FIP-gts, chemotherapy course 2, May 10.
[10] abbreviates: Patient Case 3, Taxotere + cisplatin + daily FIP-gts, chemotherapy course 3, May.
Where [11] appears, read: Patient Case 4, low dose Taxotere + cisplatin/carboplatin + daily FIP-gts.
[12] abbreviates: Patient Case 4, low dose Taxotere + cisplatin/carboplatin + daily FIP-gts, in U/L (unit assumed).

Where “and” joins values, the source holds several entries; their conditions need not be identical. Identical values can stand only once.

For the molecule `CC(=O)O[C@@]12CO[C@@H]1C[C@H](O)[C@@]1(C)C(=O)[C@H](O)C3=C(C)[C@@H](OC(=O)[C@H](O)[C@@H](NC(=O)OC(C)(C)C)c4ccccc4)C[C@@](O)([C@@H](OC(=O)c4ccccc4)[C@H]21)C3(C)C` [Docetaxel, (2R,3S)-N-carboxy-3-phenylisoserine, N-tert-butyl ester, 13-ester with 5, 20-epoxy-1,2,4,7, 10, 13-hexahydroxytax-11-en-9-one 4-acetate 2-benzoate, trihydrate], in the series with BALB/cByJNarl mice [1] (setting [6]), the “Bone surface density BS/TV” value is on record as 3.852 1/U, the “Percent bone volume BV/TV” value came to 5.634%, the “Structure model index SMI” value is listed as 2.1757 and the “Trabecular number Tb.N” value was 0.8566 1/U. In the series on BALB/cByJNarl mice [1] (setting [6]), the “Trabecular separation Tb.Sp” value was 0.5623 U and the “Trabecular thickness Tb.Th” value is 0.06577 U. For the same molecule, in the series with BALB/cByJNarl mice [1] (micro CT, FIG. 3A, compared to the Control Group), the “structural integrity of the tibia, in words” value is given as “much more osteo-porous than the Control”. Also, in the series on BALB/cByJNarl mice [1] (tibia samples, from trabecular number, percent bone volume, trabecular separation), the “Docetaxel-induced osteoporosis, in words” value is on record as “induction of osteoporosis”. For the same molecule, in the series with BALB/cByJNarl mice [2], the “structural integrity of villi, in words” value was “severely damaged and blunted”. The “adipogenesis in tibia bone marrow, in words” value with BALB/cByJNarl mice [3] is reported as “increase in marrow adipose tissue”. Also, in the series on BALB/cByJNarl mice [4] (setting [7]), the HCT was determined as 39.94 ± 1.19%, the HGB turned out to be 11.77 ± 0.31 g/dL, the MCH is on record as 15.00 ± 0.16 pg and the MCHC is on record as 29.48 ± 0.05 g/dL. In the series on BALB/cByJNarl mice [4] (setting [7]), the MCV came to 50.82 ± 0.49 fL, the MPV is given as 6.71 ± 0.17 fL, the PLT is reported as 317.88 ± 60.27 10^3/μL and the RBC was 7.86 ± 0.24 ×10^6/μL. For the same molecule, in the series on BALB/cByJNarl mice [4] (setting [7]), the RDW is recorded as 29.26 ± 0.73 fL and the WBC is given as 3.29 ± 0.80 ×10^3/μL. Moreover, the “levels of white blood cells (WBC), red blood cells (RBC), hemoglobin (HGB), hematocrit (HCT) and platelets (PLT), in words” value in the series with BALB/cByJNarl mice [4] (Docetaxel alone compared with the Control group) is reported as “considerable reduction”.
Consider “FIP-gts: fungal immunomodulatory protein of Ganoderma tsugae, SEQ ID NO: 1, produced according to WO2005040375A1; 3 mg tablets in the clinical study”, for which the “concentration sufficient to reach the maximum proliferation of human lymphocytes” value in the series with human lymphocytes is 5 µg/mL. Besides, the “porosity of knee, distal femur and proximal tibia samples, in words” value in the series on BALB/cByJNarl mice [1] (micro CT) is on record as “considerably less porous”. The ECOG was 1 in series [5] (Patient Case 1, Taxotere + cisplatin/carboplatin + daily FIP-gts); 1 in series [5] (Patient Case 2, Taxotere + cisplatin/carboplatin + daily FIP-gts); 0 in series [5] (Patient Case 3, Taxotere + cisplatin + daily FIP-gts); 1 in series [5] (setting [11]); 0 in series [5] (Patient Case 5, low dose Taxotere + cisplatin + daily FIP-gts). Besides, the AST in series [5] (Patient Case 3, Taxotere + cisplatin + daily FIP-gts, in U/L (unit assumed), chemotherapy course 1, April) is 14; in series [5] (Patient Case 3, Taxotere + cisplatin + daily FIP-gts, in U/L (unit assumed), chemotherapy course 2, May 10), 13; in series [5] (Patient Case 3, Taxotere + cisplatin + daily FIP-gts, in U/L (unit assumed), chemotherapy course 3, May), 15; in series [5] (setting [12]), 18 and 13 and 15. In addition, the Hb in series [5] (setting [8]) was 14.9; in series [5] (setting [9]), 13.9; in series [5] (setting [10]), 12; in series [5] (setting [11]), 11.2 and 10 and 8.6 and 9.5 and 9.6 and 8.9. The Cr. in series [5] (setting [8]) was 1.09; in series [5] (setting [9]), 0.94; in series [5] (setting [10]), 0.86; in series [5] (setting [11]) it was 0.8 and 0.89 and 1.15. For the same molecule, the ALT in series [5] (setting [12]) is 10 and 9. For the same molecule, in the series with BALB/cByJNarl mice [4] (co-treatment with Docetaxel), the “WBC level, in words” value is reported as “remarkably restored the WBC level to its control value”.

B1: FIP-fve: fungal immunomodulatory protein purified from F. velutipes, SEQ ID NO: 2 (protein)
chain: SATSLTFQLAYLVKKIDFDYTPNWGRGTPSSYIDNLTFPKVLTDKKYSYRVVVNGSDLGVESNFAVTPSGGQTINFLQYNKGYGVADTKTIQVFVVIPDTGNSEEYIIAEWKKT
modifications: Flammulina Velutipes
B1: the “concentration sufficient to reach the maximum proliferation of human lymphocytes” value in the series on human lymphocytes was 100 µg/mL. In addition, the “porosity of knee, distal femur and proximal tibia samples, in words” value with BALB/cByJNarl mice [1] (micro CT) was “considerably less porous”. The “HGB and PLT levels, in words” value in the series with BALB/cByJNarl mice [4] (reduction caused by Docetaxel) is listed as “lessened the reduction”.
